# Tests used:
# [1] = tested on: Bifidobacterium longum subsp. infantis ATCC 15697 strain; assay: Cell growth with each purified sugar as single carbon source (Bioscreen C); type: cell-based; settings: 5 g/L of each purified sugar, 37° C.
# Method: In this case, as a culture composition, 10 g/L of BactoPeptone, 5 g/L of a yeast extract, 2 g/L of K2HPO4 anhydride, 5 g/L of Na acetate anhydride, 2 g/L of NH4 citrate tribasic, 0.2 g/L of Mg sulfate heptahydrate, 0.05 g/L of Mn sulfate, 1 mL/L of Tween 80 (polysorbate 80), 0.5 g/L of cysteine, and 5 g/L of each purified sugar were used and cultured at 37° C.
# [2] = tested on: Bifidobacterium longum subsp. infantis ATCC 15697 strain; assay: Agarotriose fermentation profile under test tube condition; type: cell-based; settings: 5 g/L agarotriose as carbon source
# Method: In order to monitor fermentation products, a Bifidobacterium longum subsp. Infantis ATCC 15697 strain was cultured under a test tube condition.
# [3] = tested on: crude enzyme solution of a Bifidobacterium longum subsp. infantis ATCC 15697 strain; assay: Degradation experiment using crude enzyme solution; type: biochemical; settings: 2 mg/mL crude enzyme, 2 mg/mL substrate, 30° C., pH 7.0, 2 hours
# Method: In order to confirm the metabolic pathway of agarotriose, an experiment was performed on a crude enzyme solution of a Bifidobacterium longum subsp. infantis ATCC 15697 strain. For this purpose, cells and the medium were separated by centrifugation (14,000 rpm, 5 minutes, 4° C.) of a culture solution of Bifidobacterium longum subsp. infantis ATCC 15697 cultured under an agarotriose condition. An extracellular crude enzyme was obtained by ammonium sulfate precipitation of a supernatant. Further, for a cell-free extract including an intracellular crude enzyme, a supernatant crude enzyme was obtained by re-suspending cells in a 20 mM Tris-HCl buffer, and then lysing the cells by sonication, and centrifuging the lysate. During the crude enzyme experiment, 2 mg/mL of the crude enzyme and 2 mg/mL of agarotriose as a substrate were used to perform a reaction under an enzymatic reaction condition of 30° C. and 200 rpm in a 20 mM Tris-HCl buffer (pH 7.0) for 2 hours.
# B. bifidum DSM 20082 = assay: Fermentation ability of agarotriose as single carbon source; type: cell-based
# Method: (§1) In order to confirm whether agarotriose also had prebiotic effects on probiotic microorganisms other than a Bifidobacterium longum subsp. infantis ATCC 15697 strain, Bifidobacterium longum subsp. infantis ATCC 17930, Bifidobacterium longum subsp. infantis ATCC 15702, B. bifidum DSM 20082, and B. kashiwanohense DSM 21854 were cultured under agarotriose single carbon source conditions.
# [4] = tested on: B. kashiwanohense DSM 21854; assay: as above; type: cell-based
# Method: as §1
# [5] = tested on: Bifidobacterium longum subsp. infantis ATCC 15702; assay: as above; type: cell-based
# Method: as §1
# [6] = tested on: Bifidobacterium longum subsp. infantis ATCC 17930; assay: as above; type: cell-based
# Method: as §1
# [7] = Stability test against artificial gastric juice; type: in vitro ADME; settings: 37° C., 3 hours, TLC and HPLC
# Text: In order to test whether agarotriose could reach the intestines without being degraded, agarotriose was reacted in artificial gastric juice for each time, and then it was confirmed whether agarotriose was degraded, using TLC and HPLC.
agarotriose remained [7] [%],Structure (SMILES),fermentation (cell growth) of the sugar as single carbon source [1],fate of the sugar during fermentation [2],degradation of the substrate by crude enzyme [3],metabolism of agarotriose (B. bifidum DSM 20082),metabolism of agarotriose [4],metabolism of agarotriose [5],metabolism of agarotriose [6]
≥ 80,OC[C@H]1O[C@@H](O[C@H]2[C@H]3OC[C@@H]2O[C@@H](O[C@@H]2[C@@H](O)[C@H](O)O[C@H](CO)[C@@H]2O)[C@H]3O)[C@H](O)[C@@H](O)[C@H]1O [agarotriose],selectively fermented,degraded agarotriose into galactose and neoagarobiose,degrading agarotriose into galactose and neoagarobiose occurred in the cell-free extract,metabolized agarotriose and degraded agarotriose into galactose and neoagarobiose,metabolized agarotriose and degraded agarotriose into galactose and neoagarobiose,metabolized agarotriose and degraded agarotriose into galactose and neoagarobiose,metabolized agarotriose and degraded agarotriose into galactose and neoagarobiose
,"OC[C@H]1OC(O)[C@H](O)[C@@H](O[C@@H]2O[C@H]3CO[C@@H]([C@@H]2O)[C@@H]3O)[C@H]1O (stereo partly shown) [neoagarobiose, reference compound]",,secreted and accumulated outside the cells without being degraded in the cells any more,not exhibited,,,,

# Source: patent publication US20220241349A1, “METHOD FOR PRODUCING MARINE ALGAE-DERIVED AGAROTRIOSE, AND USE THEREOF AS PREBIOTIC” (Korea University Research and Business Foundation, priority 2017, published 2022)
